# In patent US12501900B2, “Heterocyclyl pyridazine as fungicidal compounds” (Bayer Aktiengesellschaft, priority 2018, dated 2025):
# Columns and labels:
# Alternaria alternata = Alternaria alternata in vitro cell test; assay type: cell-based; settings: 120 h, 20 ppm of active ingredient, liquid culture, 5 days incubation, read-out: efficacy (inhibition of fungal growth)
# Method: (§1) Example: Alternaria alternata In Vitro Cell Test • Solvent: DMSO • Culture medium: 14.6 g anhydrous D-glucose (VWR), 7.1 g Mycological Peptone (Oxoid), 1.4 g granulated Yeast Extract (Merck), QSP 1 liter • Inoculum: spores suspension Fungicides were solubilized in DMSO and the solution used to prepare the required range of concentrations. The final concentration of DMSO used in the assay was ≤1%. A spore suspension of A. alternata was prepared and diluted to the desired spore density. Fungicides were evaluated for their ability to inhibit spore germination and mycelium growth in liquid culture assay. The compounds were added in the desired concentration to the culture medium with spores. After 5 days incubation, fungi-toxicity of compounds was determined by spectrometric measurement of mycelium growth. Inhibition of fungal growth was determined by comparing the absorbance values in wells containing the fungicides with the absorbance in control wells without fungicides.
# Pyrenophora teres = experiment: In vivo preventive test on Pyrenophora teres (net blotch on barley); settings: 240 h, 500 ppm of active ingredient, preventive spray on barley, evaluated 10 days after inoculation, read-out: efficacy
# Method: Example: In Vivo Preventive Test on Pyrenophora teres (Net Blotch on Barley)
# (§2) • Solvent: 5% by volume of Dimethyl sulfoxide • 10% by volume of Acetone • Emulsifier: 1 μl of Tween® 80 per mg of active ingredient
# (§3) The active ingredients were made soluble and homogenized in a mixture of Dimethyl sulfoxide/Acetone//Tween®80 and then diluted in water to the desired concentration.
# The young plants of barley were treated by spraying the active ingredient prepared as described above. Control plants were treated only with an aqueous solution of Acetone/Dimethyl sulfoxide/Tween®80.
# After 24 hours, the plants were contaminated by spraying the leaves with an aqueous suspension of Pyrenophora teres spores. The contaminated barley plants were incubated for 48 hours at 20° C. and at 100% relative humidity and then for 8 days at 20° C. and at 70-80% relative humidity.
# The test was evaluated 10 days after the inoculation. 0% means an efficacy which corresponds to that of the control plants while an efficacy of 100% means that no disease was observed.
# Alternaria brassicae = experiment: In vivo preventive test on Alternaria brassicae (leaf spot on radish or cabbage); settings: 144 h, 500 ppm of active ingredient, preventive spray on radish or cabbage, evaluated 6 days after inoculation, read-out: efficacy
# Method: Example: In Vivo Preventive Test on Alternaria brassicae (Leaf Spot on Radish or Cabbage)
# as §2, §3
# The young plants of radish or cabbage were treated by spraying the active ingredient prepared as described above. Control plants were treated only with an aqueous solution of Acetone/Dimethyl sulfoxide/Tween® 80.
# After 24 hours, the plants were contaminated by spraying the leaves with an aqueous suspension of Alternaria brassicae spores. The contaminated radish or cabbage plants were incubated for 6 days at 20° C. and at 100% relative humidity.
# The test was evaluated 6 days after the inoculation. 0% means an efficacy which corresponds to that of the control plants while an efficacy of 100% means that no disease was observed.
# Botrytis cinerea = experiment: In vivo preventive test on Botrytis cinerea (grey mould); settings: 500 ppm of active ingredient, preventive spray on gherkin or cabbage, evaluated 4 to 5 days after inoculation, read-out: efficacy
# Method: Example: In Vivo Preventive Test on Botrytis cinerea (Grey Mould)
# as §2, §3
# The young plants of gherkin or cabbage were treated by spraying the active ingredient prepared as described above. Control plants were treated only with an aqueous solution of Acetone/Dimethyl sulfoxide/Tween® 80.
# After 24 hours, the plants were contaminated by spraying the leaves with an aqueous suspension of Botrytis cinerea spores. The contaminated gherkin plants were incubated for 4 to 5 days at 17° C. and at 90% relative humidity. The contaminated cabbage plants were incubated for 4 to 5 days at 20° C. and at 100% relative humidity.
# The test was evaluated 4 to 5 days after the inoculation. 0% means an efficacy which corresponds to that of the control plants while an efficacy of 100% means that no disease was observed.
# [1] = system: Colletotrichum lindemuthianum; experiment: Colletotrichum lindemuthianum in vitro cell test; assay type: cell-based; settings: 144 h, 20 ppm of active ingredient, liquid culture, 6 days incubation, read-out: efficacy (inhibition of fungal growth)
# Method: as §1, with “Example: Colletotrichum lindemuthianum” for “Example: Alternaria alternata”, “of C. lindemuthianum” for “of A. alternata”, “inhibit spores” for “inhibit spore”, “After 6” for “After 5”
# [2] = system: Colletotrichum lindemuthianum; experiment: In vivo preventive test on Colletotrichum lindemuthianum (leaf spot on bean); settings: 168 h, 500 ppm of active ingredient, preventive spray on bean, evaluated 7 days after inoculation, read-out: efficacy
# Method: Example: In Vivo Preventive Test on Colletotrichum lindemuthianum (Leaf Spot on Bean)
# as §2, §3
# The young plants of bean were treated by spraying the active ingredient prepared as described above. Control plants were treated only with an aqueous solution of Acetone/Dimethyl sulfoxide/Tween® 80.
# After 24 hours, the plants were contaminated by spraying the leaves with an aqueous suspension of Colletotrichum lindemuthianum spores. The contaminated bean plants were incubated for 24 hours at 20° C. and at 100% relative humidity and then for 6 days at 20° C. and at 90% relative humidity.
# The test was evaluated 7 days after the inoculation. 0% means an efficacy which corresponds to that of the control plants while an efficacy of 100% means that no disease was observed.
# Septoria tritici [3] = experiment: Septoria tritici in vitro cell test; assay type: cell-based; settings: Zymoseptoria tritici, 168 h; 20 ppm of active ingredient; liquid culture, 7 days incubation; read-out: efficacy (inhibition of fungal growth)
# Method: as §1, with “Example: Septoria tritici” for “Example: Alternaria alternata”, “g Bacteriological” for “g Mycological”, “(Oxoid), •” for “(Oxoid),”, “Inoculum: spore” for “Inoculum: spores”, “of Septoria tritici” for “of A. alternata”, “After 7” for “After 5”
# Sphaerotheca fuliginea = experiment: In vivo preventive test on Sphaerotheca fuliginea (powdery mildew on cucurbits); settings: Podosphaera fuliginea, 192 h; 500 ppm of active ingredient; preventive spray on gherkin; evaluated 8 days after inoculation; read-out: efficacy
# Method: Example: In Vivo Preventive Test on Sphaerotheca fuliginea (Powdery Mildew on Cucurbits)
# as §2, §3
# The young plants of gherkin were treated by spraying the active ingredient prepared as described above. Control plants were treated only with an aqueous solution of Acetone/Dimethyl sulfoxide/Tween® 80.
# After 24 hours, the plants were contaminated by spraying the leaves with an aqueous suspension of Sphaerotheca fuliginea spores. The contaminated gherkin plants were incubated for 8 days at 20° C. and at 70-80% relative humidity.
# The test was evaluated 8 days after the inoculation. 0% means an efficacy which corresponds to that of the control plants while an efficacy of 100% means that no disease was observed.
# Septoria tritici [4] = experiment: In vivo preventive test on Septoria tritici (leaf spot on wheat); settings: Zymoseptoria tritici, in Triticum aestivum; 500 ppm of active ingredient; preventive spray on wheat; evaluated 19 days after inoculation; read-out: efficacy
# Method: Example: In Vivo Preventive Test on Septoria tritici (Leaf Spot on Wheat)
# as §2, §3
# The young plants of wheat were treated by spraying the active ingredient prepared as described above. Control plants were treated only with an aqueous solution of Acetone/Dimethyl sulfoxide/Tween®80.
# After 24 hours, the plants were contaminated by spraying the leaves with an aqueous suspension of Septoria tritici spores. The contaminated wheat plants were incubated for 72 hours at 17° C. and at 100% relative humidity and then for 15 days at 20° C. and at 90% relative humidity.
# The test was evaluated 19 days after the inoculation. 0% means an efficacy which corresponds to that of the control plants while an efficacy of 100% means that no disease was observed.
# LogP determination = assay type: physicochemical; settings: reversed phase HPLC column; method [a]
compound,measurement,setting,value
Cc1ccc(CC2CON=C(c3cc(C)nnc3Oc3cccc(Cl)c3F)N2)c(Cl)c1 (stereo not drawn) [I-302],inhibition at 20 ppm,Alternaria alternata,90 to 100%
same,pest or weed control at 500 ppm,Pyrenophora teres,90 to 100%
same,pest or weed control at 500 ppm,Alternaria brassicae,90 to 100%
same,pest or weed control at 500 ppm,Botrytis cinerea,90 to 100%
same,inhibition at 20 ppm,[1],90 to 100%
same,pest or weed control at 500 ppm,[2],90 to 100%
same,inhibition at 20 ppm,Septoria tritici [3],90 to 100%
same,pest or weed control at 500 ppm,Sphaerotheca fuliginea,90 to 100%
same,pest or weed control at 500 ppm,Septoria tritici [4],90 to 100%
"COC(=N)c1cc(Cl)nnc1Oc1cccc(C2CC2)c1 [25-01, methyl 6-chloro-3-(3-cyclopropylphenoxy)pyridazine-4-carboximidate]",chromatographic logP,LogP determination,3.08
"Cc1cc(C(N)=NOCC=Cc2ccc3c(ccn3C)c2)c(Oc2cccc(C(F)(F)F)c2)nn1 [30-01, 6-methyl-N′-[3-(1-methylindol-5-yl)allyloxy]-3-[3-(trifluoromethyl)phenoxy]pyridazine-4-carboxamidine]",chromatographic logP,LogP determination,3.92
"COC(=N)c1cc(Cl)nnc1Oc1cccc(C(F)(F)F)c1 [25-02, methyl 6-chloro-3-[3-(trifluoromethyl)phenoxy]pyridazine-4-carboximidate]",chromatographic logP,LogP determination,3
